According to ChEMBL document CHEMBL4507288 (2021):

Legend:
[1] = molecular target: cAMP-dependent protein kinase catalytic subunit beta (Homo sapiens) (UniProt P22694); details: Compound concentration 1000.0 nM
[2] = molecular target: Serine/threonine-protein kinase 24 (Homo sapiens) (UniProt Q9Y6E0); details: Compound concentration 1000.0 nM
[3] = test system: Phosphatidylinositol 4,5-bisphosphate 3-kinase catalytic subunit alpha isoform (Homo sapiens), P42336 [E545A]; details: Compound concentration 1000.0 nM
[4] = molecular target: Serine/threonine-protein kinase 17A (Homo sapiens) (UniProt Q9UEE5); details: Compound concentration 1000.0 nM
[5] = molecular target: Ephrin type-B receptor 6 (Homo sapiens) (UniProt O15197); details: Compound concentration 1000.0 nM
[6] = molecular target: Calcium/calmodulin-dependent protein kinase kinase 2 (Homo sapiens) (UniProt Q96RR4); details: Compound concentration 1000.0 nM
[7] = molecular target: Tyrosine-protein kinase ABL2 (Homo sapiens) (UniProt P42684); details: Compound concentration 1000.0 nM
[8] = molecular target: BMP-2-inducible protein kinase (Homo sapiens) (UniProt Q9NSY1); details: Compound concentration 1000.0 nM
[9] = molecular target: Inhibitor of nuclear factor kappa-B kinase subunit alpha (Homo sapiens) (UniProt O15111); details: Compound concentration 1000.0 nM
[10] = molecular target: Tyrosine-protein kinase BTK (Homo sapiens) (UniProt Q06187); details: Compound concentration 1000.0 nM
[11] = molecular target: Phosphatidylinositol 4-kinase beta (Homo sapiens) (UniProt Q9UBF8); details: Compound concentration 1000.0 nM
[12] = molecular target: Dual specificity mitogen-activated protein kinase kinase 6 (Homo sapiens) (UniProt P52564); details: Compound concentration 1000.0 nM
[13] = molecular target: Serine/threonine-protein kinase SIK2 (Homo sapiens) (UniProt Q9H0K1); details: Compound concentration 1000.0 nM
[14] = molecular target: Serine/threonine-protein kinase BRSK2 (Homo sapiens) (UniProt Q8IWQ3); details: Compound concentration 1000.0 nM
[15] = molecular target: Rhodopsin kinase GRK7 (Homo sapiens) (UniProt Q8WTQ7); details: Compound concentration 1000.0 nM
[16] = molecular target: Serine/threonine-protein kinase WNK4 (Homo sapiens) (UniProt Q96J92); details: Compound concentration 1000.0 nM
[17] = molecular target: Mitogen-activated protein kinase kinase kinase kinase 2 (Homo sapiens) (UniProt Q12851); details: Compound concentration 1000.0 nM
[18] = molecular target: Serine/threonine-protein kinase pim-3 (Homo sapiens) (UniProt Q86V86); details: Compound concentration 1000.0 nM
[19] = molecular target: Serine/threonine-protein kinase 36 (Homo sapiens) (UniProt Q9NRP7); details: Compound concentration 1000.0 nM
[20] = molecular target: Ephrin type-B receptor 3 (Homo sapiens) (UniProt P54753); details: Compound concentration 1000.0 nM
[21] = molecular target: Death-associated protein kinase 2 (Homo sapiens) (UniProt Q9UIK4); details: Compound concentration 1000.0 nM
[22] = molecular target: Cyclin-dependent kinase 2 homolog (Plasmodium falciparum (isolate 3D7)) (UniProt P61075); details: Compound concentration 1000.0 nM
[23] = molecular target: Aurora kinase C (Homo sapiens) (UniProt Q9UQB9); details: Compound concentration 1000.0 nM
[24] = molecular target: Aurora kinase A (Homo sapiens) (UniProt O14965); details: Compound concentration 1000.0 nM
[25] = molecular target: Mitogen-activated protein kinase kinase kinase 19 (Homo sapiens) (UniProt Q56UN5); details: Compound concentration 1000.0 nM
[26] = molecular target: Membrane-associated tyrosine- and threonine-specific cdc2-inhibitory kinase (Homo sapiens) (UniProt Q99640); details: Compound concentration 1000.0 nM
[27] = molecular target: Tyrosine-protein kinase FRK (Homo sapiens) (UniProt P42685); details: Compound concentration 1000.0 nM
[28] = molecular target: Non-receptor tyrosine-protein kinase TYK2 (Homo sapiens) (UniProt P29597); details: Compound concentration 1000.0 nM
[29] = molecular target: Cyclin-dependent kinase 18 (Homo sapiens) (UniProt Q07002); details: Compound concentration 1000.0 nM
[30] = molecular target: Mitogen-activated protein kinase kinase kinase 5 (Homo sapiens) (UniProt Q99683); details: Compound concentration 1000.0 nM
[31] = test system: Epidermal growth factor receptor (Homo sapiens), P00533 [UNDEFINED MUTATION]; details: Compound concentration 1000.0 nM
[32] = molecular target: Serine/threonine-protein kinase RIO3 (Homo sapiens) (UniProt O14730); details: Compound concentration 1000.0 nM
[33] = test system: Receptor-type tyrosine-protein kinase FLT3 (Homo sapiens), P36888 [D835V]; details: Compound concentration 1000.0 nM
[34] = molecular target: Testis-specific serine/threonine-protein kinase 1 (Homo sapiens) (UniProt Q9BXA7); details: Compound concentration 1000.0 nM
[35] = molecular target: Serine/threonine-protein kinase VRK2 (Homo sapiens) (UniProt Q86Y07); details: Compound concentration 1000.0 nM
[36] = molecular target: Receptor tyrosine-protein kinase erbB-2 (Homo sapiens) (UniProt P04626); details: Compound concentration 1000.0 nM
[37] = molecular target: Mitogen-activated protein kinase kinase kinase 12 (Homo sapiens) (UniProt Q12852); details: Compound concentration 1000.0 nM
[38] = molecular target: Serine/threonine-protein kinase ULK3 (Homo sapiens) (UniProt Q6PHR2); details: Compound concentration 1000.0 nM
[39] = molecular target: Cyclin-dependent kinase 8 (Homo sapiens) (UniProt P49336); details: Compound concentration 1000.0 nM
[40] = molecular target: Casein kinase II subunit alpha (Homo sapiens) (UniProt P68400); details: Compound concentration 1000.0 nM
[41] = molecular target: Cyclin-dependent kinase 4 (Homo sapiens) (UniProt P11802); details: Compound concentration 1000.0 nM
[42] = test system: Tyrosine-protein kinase ABL1 (Homo sapiens), P00519 [Q252H]; details: Compound concentration 1000.0 nM
[43] = test system: Phosphatidylinositol 4,5-bisphosphate 3-kinase catalytic subunit alpha isoform (Homo sapiens), P42336 [E545K]; details: Compound concentration 1000.0 nM
[44] = molecular target: Dual specificity tyrosine-phosphorylation-regulated kinase 1A (Homo sapiens) (UniProt Q13627); details: Compound concentration 1000.0 nM
[45] = molecular target: Alpha-2B adrenergic receptor (Homo sapiens, UniProt P18089); experiment: GPCRScan assay: inhibition of Alpha2B; design: radioligand conc. used [nm] 1.5 – 2.0, parental cells HEKT

Chain of Death-associated protein kinase 2 (Homo sapiens) (Q9UIK4 whole entry, looked up): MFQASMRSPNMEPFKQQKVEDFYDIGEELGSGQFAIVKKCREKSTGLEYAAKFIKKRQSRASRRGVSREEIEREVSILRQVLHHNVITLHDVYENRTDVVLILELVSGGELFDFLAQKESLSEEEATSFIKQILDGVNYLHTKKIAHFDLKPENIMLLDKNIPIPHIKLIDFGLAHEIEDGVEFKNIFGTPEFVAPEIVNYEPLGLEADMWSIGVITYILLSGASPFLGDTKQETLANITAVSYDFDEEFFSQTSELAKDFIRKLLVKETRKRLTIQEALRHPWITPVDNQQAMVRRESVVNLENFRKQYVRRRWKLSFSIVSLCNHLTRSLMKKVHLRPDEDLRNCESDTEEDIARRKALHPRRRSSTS
Chain of Serine/threonine-protein kinase RIO3 (Homo sapiens) (O14730 whole entry): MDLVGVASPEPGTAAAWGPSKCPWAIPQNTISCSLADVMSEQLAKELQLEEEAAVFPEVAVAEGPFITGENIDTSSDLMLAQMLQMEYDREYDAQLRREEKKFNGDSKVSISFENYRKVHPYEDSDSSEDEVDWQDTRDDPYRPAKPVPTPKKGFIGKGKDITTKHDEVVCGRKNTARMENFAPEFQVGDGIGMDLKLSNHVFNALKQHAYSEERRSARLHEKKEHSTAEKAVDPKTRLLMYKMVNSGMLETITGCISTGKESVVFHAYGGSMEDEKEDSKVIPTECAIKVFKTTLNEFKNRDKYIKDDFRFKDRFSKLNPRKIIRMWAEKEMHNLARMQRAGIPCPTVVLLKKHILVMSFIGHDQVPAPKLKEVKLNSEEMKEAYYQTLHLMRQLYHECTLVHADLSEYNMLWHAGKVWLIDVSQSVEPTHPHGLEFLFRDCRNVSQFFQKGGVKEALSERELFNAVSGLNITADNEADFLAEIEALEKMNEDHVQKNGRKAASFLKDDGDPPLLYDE
Chain of Phosphatidylinositol 4,5-bisphosphate 3-kinase catalytic subunit alpha isoform (Homo sapiens), P42336 [E545K] (P42336 whole entry E545K, canonical isoform): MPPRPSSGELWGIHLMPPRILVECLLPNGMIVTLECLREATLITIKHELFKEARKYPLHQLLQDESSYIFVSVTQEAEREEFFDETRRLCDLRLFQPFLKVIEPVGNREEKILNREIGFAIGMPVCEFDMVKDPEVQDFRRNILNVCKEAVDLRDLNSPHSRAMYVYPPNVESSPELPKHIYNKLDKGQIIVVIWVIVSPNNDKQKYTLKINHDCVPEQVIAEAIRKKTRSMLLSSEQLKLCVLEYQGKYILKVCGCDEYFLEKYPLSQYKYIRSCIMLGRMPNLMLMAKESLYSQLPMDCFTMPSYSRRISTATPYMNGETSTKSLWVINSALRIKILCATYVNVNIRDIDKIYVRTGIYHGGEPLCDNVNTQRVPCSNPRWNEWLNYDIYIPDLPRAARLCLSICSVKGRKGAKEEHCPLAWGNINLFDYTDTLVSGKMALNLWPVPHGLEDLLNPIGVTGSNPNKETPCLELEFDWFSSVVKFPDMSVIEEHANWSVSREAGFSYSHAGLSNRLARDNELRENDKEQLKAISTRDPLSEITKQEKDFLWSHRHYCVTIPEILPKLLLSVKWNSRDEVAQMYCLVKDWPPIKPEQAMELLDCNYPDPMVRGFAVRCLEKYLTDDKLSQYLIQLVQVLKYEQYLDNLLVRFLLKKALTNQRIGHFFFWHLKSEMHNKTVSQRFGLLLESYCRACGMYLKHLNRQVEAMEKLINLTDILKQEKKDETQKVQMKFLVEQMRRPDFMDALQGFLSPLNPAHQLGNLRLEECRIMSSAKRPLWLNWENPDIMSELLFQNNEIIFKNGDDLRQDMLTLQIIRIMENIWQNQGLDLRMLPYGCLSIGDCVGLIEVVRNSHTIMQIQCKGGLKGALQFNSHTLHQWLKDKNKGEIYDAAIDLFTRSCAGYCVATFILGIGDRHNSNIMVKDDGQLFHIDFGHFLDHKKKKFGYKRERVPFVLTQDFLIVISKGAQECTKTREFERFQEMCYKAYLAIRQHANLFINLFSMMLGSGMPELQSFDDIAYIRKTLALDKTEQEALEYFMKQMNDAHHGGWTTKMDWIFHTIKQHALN
Chain of Cyclin-dependent kinase 18 (Homo sapiens) (Q07002 whole entry): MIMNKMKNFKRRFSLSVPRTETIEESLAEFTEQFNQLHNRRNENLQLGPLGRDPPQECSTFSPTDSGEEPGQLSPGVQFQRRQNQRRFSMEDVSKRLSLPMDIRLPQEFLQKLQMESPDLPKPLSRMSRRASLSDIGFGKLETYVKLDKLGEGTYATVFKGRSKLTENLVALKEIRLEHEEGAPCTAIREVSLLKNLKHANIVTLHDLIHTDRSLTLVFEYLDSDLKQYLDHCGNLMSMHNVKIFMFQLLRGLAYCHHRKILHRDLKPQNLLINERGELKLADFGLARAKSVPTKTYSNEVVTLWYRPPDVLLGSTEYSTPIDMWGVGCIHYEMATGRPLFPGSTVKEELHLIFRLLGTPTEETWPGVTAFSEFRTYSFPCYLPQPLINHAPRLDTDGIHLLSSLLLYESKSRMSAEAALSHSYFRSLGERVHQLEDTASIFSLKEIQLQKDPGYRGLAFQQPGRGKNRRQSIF
Chain of Rhodopsin kinase GRK7 (Homo sapiens) (Q8WTQ7 whole entry): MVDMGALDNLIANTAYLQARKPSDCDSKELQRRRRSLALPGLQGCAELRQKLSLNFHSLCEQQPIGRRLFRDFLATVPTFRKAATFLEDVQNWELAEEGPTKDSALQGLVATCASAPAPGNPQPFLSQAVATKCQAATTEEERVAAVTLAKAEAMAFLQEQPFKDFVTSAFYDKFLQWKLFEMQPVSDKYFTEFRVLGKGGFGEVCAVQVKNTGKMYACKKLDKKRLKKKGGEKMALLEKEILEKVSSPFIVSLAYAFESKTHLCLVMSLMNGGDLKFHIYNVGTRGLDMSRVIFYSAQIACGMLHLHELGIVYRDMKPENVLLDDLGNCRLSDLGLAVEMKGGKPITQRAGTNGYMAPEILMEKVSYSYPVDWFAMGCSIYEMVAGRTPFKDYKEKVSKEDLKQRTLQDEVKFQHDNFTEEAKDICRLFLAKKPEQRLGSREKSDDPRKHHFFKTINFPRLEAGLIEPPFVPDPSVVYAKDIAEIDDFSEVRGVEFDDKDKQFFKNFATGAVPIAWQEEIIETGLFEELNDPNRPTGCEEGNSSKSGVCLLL
Chain of Cyclin-dependent kinase 8 (Homo sapiens) (P49336 whole entry): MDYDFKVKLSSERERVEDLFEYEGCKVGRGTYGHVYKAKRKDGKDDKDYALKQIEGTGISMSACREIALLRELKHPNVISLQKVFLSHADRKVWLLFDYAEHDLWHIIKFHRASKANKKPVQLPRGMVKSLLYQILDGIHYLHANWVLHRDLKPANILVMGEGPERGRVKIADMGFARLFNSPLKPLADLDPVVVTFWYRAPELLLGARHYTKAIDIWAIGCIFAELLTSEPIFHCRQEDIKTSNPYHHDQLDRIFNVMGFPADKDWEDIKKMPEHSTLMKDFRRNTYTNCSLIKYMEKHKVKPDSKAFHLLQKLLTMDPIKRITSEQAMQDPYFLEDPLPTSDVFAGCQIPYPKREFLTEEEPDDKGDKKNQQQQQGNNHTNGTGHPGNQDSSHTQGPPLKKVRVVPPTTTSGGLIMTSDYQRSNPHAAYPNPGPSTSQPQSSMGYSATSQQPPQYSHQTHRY
Chain of Phosphatidylinositol 4-kinase beta (Homo sapiens) (Q9UBF8 2-816 limits assumed): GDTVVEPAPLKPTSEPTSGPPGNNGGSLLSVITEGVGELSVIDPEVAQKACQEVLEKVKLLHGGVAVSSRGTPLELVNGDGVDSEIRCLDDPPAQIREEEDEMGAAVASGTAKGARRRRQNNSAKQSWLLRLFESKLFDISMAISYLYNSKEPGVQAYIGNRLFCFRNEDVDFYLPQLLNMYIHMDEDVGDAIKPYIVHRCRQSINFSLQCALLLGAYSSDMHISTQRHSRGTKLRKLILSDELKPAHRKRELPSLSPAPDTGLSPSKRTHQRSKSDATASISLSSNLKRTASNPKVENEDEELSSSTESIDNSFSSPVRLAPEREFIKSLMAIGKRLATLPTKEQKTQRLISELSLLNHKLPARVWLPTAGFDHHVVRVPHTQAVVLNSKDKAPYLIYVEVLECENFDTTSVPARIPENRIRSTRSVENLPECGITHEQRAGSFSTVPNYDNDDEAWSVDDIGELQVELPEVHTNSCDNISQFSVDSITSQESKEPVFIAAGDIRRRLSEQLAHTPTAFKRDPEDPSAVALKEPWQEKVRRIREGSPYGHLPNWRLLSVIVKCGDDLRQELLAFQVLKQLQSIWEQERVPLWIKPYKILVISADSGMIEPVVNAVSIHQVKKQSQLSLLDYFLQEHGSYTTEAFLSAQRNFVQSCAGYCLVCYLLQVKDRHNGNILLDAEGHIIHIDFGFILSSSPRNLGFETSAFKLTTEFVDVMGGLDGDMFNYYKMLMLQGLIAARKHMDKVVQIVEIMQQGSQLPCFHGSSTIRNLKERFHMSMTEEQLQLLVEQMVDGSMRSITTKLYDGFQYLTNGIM
Chain of Dual specificity mitogen-activated protein kinase kinase 6 (Homo sapiens) (P52564 whole entry): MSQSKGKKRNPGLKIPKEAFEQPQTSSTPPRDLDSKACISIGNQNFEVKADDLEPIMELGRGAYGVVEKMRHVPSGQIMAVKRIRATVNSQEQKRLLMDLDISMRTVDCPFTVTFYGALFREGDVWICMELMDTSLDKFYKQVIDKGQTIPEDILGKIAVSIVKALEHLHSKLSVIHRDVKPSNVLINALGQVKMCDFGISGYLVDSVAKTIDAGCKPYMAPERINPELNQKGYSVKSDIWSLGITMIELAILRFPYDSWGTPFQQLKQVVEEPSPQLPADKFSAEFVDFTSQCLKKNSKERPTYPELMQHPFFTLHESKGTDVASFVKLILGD
Chain of Casein kinase II subunit alpha (Homo sapiens) (P68400 whole entry, looked up): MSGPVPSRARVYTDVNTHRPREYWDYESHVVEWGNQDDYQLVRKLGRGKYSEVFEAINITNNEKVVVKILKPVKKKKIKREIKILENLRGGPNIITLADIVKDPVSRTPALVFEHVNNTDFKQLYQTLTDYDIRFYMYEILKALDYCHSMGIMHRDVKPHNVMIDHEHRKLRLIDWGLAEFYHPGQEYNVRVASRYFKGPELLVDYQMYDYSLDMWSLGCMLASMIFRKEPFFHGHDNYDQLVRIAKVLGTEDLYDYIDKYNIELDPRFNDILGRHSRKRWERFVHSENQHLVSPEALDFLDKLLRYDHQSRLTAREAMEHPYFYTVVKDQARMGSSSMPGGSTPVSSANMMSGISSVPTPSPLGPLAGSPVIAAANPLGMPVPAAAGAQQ

**Q.** Which residual activity [1] does the source give for `O=S(=O)(NC1CCC(c2cc(F)ccc2F)(S(=O)(=O)c2ccc(Cl)cc2)CC1)C(F)(F)F` (stereo not given) [MRK-560] here?
**A.** The residual activity was 98%.

**Q.** What about the residual activity [2] of the same compound?
**A.** Its residual activity is 99%.

**Q.** What about the residual activity [3] of the same compound?
**A.** Its residual activity is 95%.

**Q.** What about the residual activity [4] of the same compound?
**A.** The residual activity was 86%.

**Q.** What about the residual activity [5] of the same compound?
**A.** Its residual activity is 100%.

**Q.** And the residual activity [6]?
**A.** The residual activity was 100%.

**Q.** And the residual activity [7]?
**A.** The residual activity was 100%.

**Q.** And the residual activity [8]?
**A.** Its residual activity is 92%.

**Q.** What about the residual activity [9] of the same compound?
**A.** The residual activity was 100%.

**Q.** And the residual activity [10]?
**A.** Its residual activity is 100%.

**Q.** What about the residual activity [11] of the same compound?
**A.** The residual activity was 82%.

**Q.** What about the residual activity [12] of the same compound?
**A.** The residual activity was 100%.

**Q.** And the residual activity [13]?
**A.** The residual activity was 100%.

**Q.** What about the residual activity [14] of the same compound?
**A.** Its residual activity is 100%.

**Q.** And the residual activity [15]?
**A.** The residual activity was 100%.

**Q.** What about the residual activity [16] of the same compound?
**A.** Its residual activity is 100%.

**Q.** And the residual activity [17]?
**A.** The residual activity was 100%.

**Q.** And the residual activity [18]?
**A.** The residual activity was 100%.

**Q.** What about the residual activity [19] of the same compound?
**A.** Its residual activity is 100%.

**Q.** What about the residual activity [20] of the same compound?
**A.** Its residual activity is 100%.

**Q.** What about the residual activity [21] of the same compound?
**A.** Its residual activity is 96%.

**Q.** What about the residual activity [22] of the same compound?
**A.** The residual activity was 100%.

**Q.** What about the residual activity [23] of the same compound?
**A.** The residual activity was 94%.

**Q.** And the residual activity [24]?
**A.** Its residual activity is 100%.

**Q.** What about the residual activity [25] of the same compound?
**A.** The residual activity was 84%.

**Q.** What about the residual activity [26] of the same compound?
**A.** The residual activity was 100%.

**Q.** And the residual activity [27]?
**A.** Its residual activity is 100%.

**Q.** And the residual activity [28]?
**A.** Its residual activity is 100%.

**Q.** What about the residual activity [29] of the same compound?
**A.** The residual activity was 100%.

**Q.** What about the residual activity [30] of the same compound?
**A.** Its residual activity is 80%.

**Q.** And the residual activity [31]?
**A.** Its residual activity is 80%.

**Q.** What about the residual activity [32] of the same compound?
**A.** Its residual activity is 83%.

**Q.** And the residual activity [33]?
**A.** The residual activity was 82%.

**Q.** What about the residual activity [34] of the same compound?
**A.** Its residual activity is 100%.

**Q.** What about the residual activity [35] of the same compound?
**A.** The residual activity was 100%.

**Q.** What about the residual activity [36] of the same compound?
**A.** The residual activity was 91%.

**Q.** What about the residual activity [37] of the same compound?
**A.** Its residual activity is 100%.

**Q.** What about the residual activity [38] of the same compound?
**A.** Its residual activity is 82%.

**Q.** What about the residual activity [39] of the same compound?
**A.** The residual activity was 100%.

**Q.** What about the residual activity [40] of the same compound?
**A.** Its residual activity is 85%.

**Q.** And the residual activity [41]?
**A.** The residual activity was 81%.

**Q.** What about the residual activity [42] of the same compound?
**A.** Its residual activity is 95%.

**Q.** What about the residual activity [43] of the same compound?
**A.** The residual activity was 77%.

**Q.** And the residual activity [44]?
**A.** The residual activity was 78%.

**Q.** For `CC(C)(C)OC(=O)N1CCCC1CNC1CCC(c2cc(F)ccc2F)(S(=O)(=O)c2ccc(Cl)cc2)CC1` (stereo not given) [GSI-NC], which Ki [45] is on record?
**A.** The Ki was 879 nM.
